Assay results as given in patent publication US20200384072A1, “THERAPY OF IONIZING RADIATION-INDUCED DISORDERS” (SCK-CEN, priority 2019, published 2020).

Key:
TIME cells [1] = assay: Cell death, Annexin V and Caspase 3/7 live cell imaging, TIME cells; assay type: cell-based, human
Experimental: TICAE and TIME cells were seeded in 96 well plates at a density of 10000 cells/well in 8 biological replicates. After three days, cells were at 100% confluence. At 30 minutes before X-ray exposure, cells were refreshed with 200 μl medium supplemented with Caspase 3/7 reagent (1:1000 dilution) and Annexin V reagent (1:200 dilution) (Essen Bioscience, United Kingdom) with or without 100 μM TAT-Gap19 (Genosphere Biotechnologies, Paris, France). Fluorescence signals were measured from 4 h until 100 h after irradiation by imaging every 2 hours using the IncuCyte ZOOM® system (Essen BioScience, Ann Arbor, Mich., USA). Different channels (TRITC, FITC and phase contrast) and a 10× objective were used. Spectral unmixing set as 8% of red removed from green was applied. The IncuCyte software's processing definition was set to recognize red (Annexin V) and green (Caspase 3/7) stained cells, making use of the Top-Hat background subtraction method. Fluorescence signal was normalized to cell count.

TIME cells [2] = assay: DNA damage, gamma H2AX and TP53BP1 foci, TIME cells; assay type: cell-based, human; settings: 100 μM TAT-Gap19, 0.1 and 5 Gy, 1 h p.i.
Experimental: To detect DNA double strand breaks after IR, TICAE and TIME cells were seeded in Nunc™ Lab-Tek™ Chamber Slide (Thermo Fisher Scientific, Asse, Belgium) in 8 replicates, at seeding density of 50 000 cells/well. Two days later, cells reached 100% confluence. At 30 min before IR, a fresh medium was added to the cells with or without 100 μM TAT-Gap19. At 1 h post irradiation, cells were fixed with 2% PFA (Sigma-Aldrich Co. LCC, Diegem, Belgium) and permeabilized with 0.25% Triton X-100 (Sigma-Aldrich Co. LCC, Diegem, Belgium) in PBS. Cells were blocked for 1 h in 1% normal goat serum (Thermo Fisher Scientific, Asse, Belgium) in Tris-NaCl (Perkin Elmer, Brussels, Belgium). Thereafter, staining with 1/300 primary anti-gamma H2AX antibody (Merck-Millipore #05-636) and 1/1000 anti-TP53BP1 antibody (Novus Biologicals #NB100-304) was performed for 1 h at 37° C. After washing 3 times with PBS, secondary Alexa Fluor 488 and 568 antibodies (Life Technologies, Merelbeke, Belgium) were applied for 1 h at 37° C. Finally, the slides were mounted using ProLong Diamond Antifade Mountant with DAPI (Life Technologies, Merelbeke, Belgium), and cells were visualized with an Eclipse Ti automated inverted wide-field epifluorescence microscope (Nikon, Brussels, Belgium) equipped with a 20×Plan Fluor objective (NA 0.6) and an Andor Ixon EMCCD camera, controlled by the MS Elements software. […]

Cx43 hemichannels = biological target: T1, Cx43 hemichannels (Homo sapiens, UniProt P17302); assay: Propidium iodide dye uptake assay after irradiation, TICAE cells; assay type: cell-based
T1 construct: endogenous in cells; host or cells: TICAE and TIME cells (human endothelial cell lines)
T1 sequence (P17302 whole entry): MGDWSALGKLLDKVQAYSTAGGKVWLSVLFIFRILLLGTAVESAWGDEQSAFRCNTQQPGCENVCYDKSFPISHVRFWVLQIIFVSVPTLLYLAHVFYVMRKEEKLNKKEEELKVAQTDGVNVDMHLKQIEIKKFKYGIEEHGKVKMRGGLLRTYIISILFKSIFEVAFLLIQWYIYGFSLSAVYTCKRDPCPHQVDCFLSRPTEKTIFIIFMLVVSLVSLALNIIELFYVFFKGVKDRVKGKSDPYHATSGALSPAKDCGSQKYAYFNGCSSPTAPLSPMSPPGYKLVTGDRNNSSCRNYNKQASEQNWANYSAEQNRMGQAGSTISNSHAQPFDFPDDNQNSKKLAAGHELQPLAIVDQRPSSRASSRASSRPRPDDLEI
Excerpt: Hemichannel opening was also investigated by dye uptake studies making use of the hemichannel permeable fluorescent tracer propidium iodide (PI; MW 668.4 Da). In addition, dextran fluorescein 10 kDa dye was used to assess membrane integrity and occurrence of cell death. PI stains cells with open hemichannels, late apoptotic and necrotic cells, while dextran fluorescein only stains late apoptotic and necrotic cells. Therefore, PI-positive and dextran fluorescein-negative cells are a measure for hemichannel opening while dextran fluorescein-positive cells are a measure for dead cells.
TICAE and TIME cells were seeded in a 24-well plate at a density of 1.25×10^5 and 1.5×10^5 cells/well, respectively, in six biological replicates. Three days later, cells reached 100% confluence. Thirty minutes before irradiation, cells were refreshed with 1 ml medium alone or with medium supplemented with 100 μM TAT-Gap19 (Genosphere Biotechnologies, Paris, France). For fractionated irradiation, cells were refreshed with 1.5 ml medium/well. At different time points after irradiation (1, 6 and 72 h), cells were washed twice with HMS supplemented with 25 mM HEPES (Sigma-Aldrich Co. LCC, Diegem, Belgium) (HBSS-HEPES). Afterwards, the cells were incubated with 1 mM PI and 200 μM dextran fluorescein (10 kDa) (Life Technologies, Merelbeke, Belgium), dissolved in HBSS-HEPES for 5 minutes followed by 5 times washing with MSS-HEPES. Finally, the fluorescence was measured using an IncuCyte ZOOM® system (Essen BioScience, Ann Arbor, Mich., USA) by using different channels (TRITC, FITC and phase contrast) and a 10× objective Fluorescence signal was normalized to cell number.

TIME cells [3] = assay: IGFBP-7 and GDF-15 multiplex-based assays, TIME cells; assay type: cell-based, human; settings: 7 d p.i.
Experimental: TICAE and TIME cells were seeded in a 6-well plate at a density of 2.5×10^5 cells/well in 5 to 6 biological replicates. Two to three days later, cells reached 100% confluence. At 30 minutes before X-ray exposure, cells were refreshed with medium with or without 100 μM TAT-Gap19 (Genosphere Biotechnologies, Paris, France). At 24 h, 48 h, 72 h and 7 d after irradiation, the supernatant was collected. Medium was changed only for the 7 d time point experiment at the fourth day with fresh medium alone or with medium supplemented with 100 μM TAT-Gap19. For the simultaneous detection of multiple cytokines in the supernatants, the Magnetic Luminex® Assay (R&D systems, Minneapolis, […]) was used following manufacturer's instructions. Briefly, supernatants, standards and microparticles were incubated into a 96-well plate which was pre-coated with cytokine-specific antibodies. The immobilized antibodies were able to bind the cytokines of interest after 2 h incubation, then the plate was washed and incubation with a biotinylated antibody cocktail specific to the cytokines of interest was performed for 1 h. A second wash was performed to remove the unbound biotinylated antibodies. Further, a streptavidin-phycoerythrin conjugate was added to each well to bind to the biotinylated antibodies. After a final wash, the microparticles were resuspended in buffer and read using the Luminex® MAGPIX Analyzer (R&D systems, Minneapolis, […]).

## TAT-Gap19: connexin mimetic peptide, amino-acids 128-136 of the CL of Cx43 (SEQ ID NO: 2), Gap19 linked to TAT sequence; Cx43 hemichannel inhibitor (YGRKKRRQRRRKQIEIKKFK)
TIME cells [1]; 100 μM TAT-Gap19, 0 Gy, 12-24 h p.i. time window
  Annexin V: transiently reduced Annexin V
TIME cells [1]; 100 μM TAT-Gap19, 5 Gy, 4-48 h p.i. time window
  Annexin V elevation: significantly reduced Annexin V elevation
TIME cells [2]
  gamma H2AX, TP53BP1 and colocalized foci (radiation-induced DNA damage): not affected
Cx43 hemichannels; 100 μM TAT-Gap19, fractionated 5 Gy, 72 h
  radiation-induced PI dye uptake: had no effect
Cx43 hemichannels; 100 μM TAT-Gap19, single 5 Gy, 1 h p.i.
  radiation-induced PI dye uptake: Significant inhibition
Cx43 hemichannels; 100 μM TAT-Gap19, single irradiation, 72 h p.i.
  radiation-induced PI dye uptake: most clear and significant at the 72 h p.i. time point
TIME cells [3]; 100 μM TAT-Gap19, 0, 0.1 and 5 Gy
  GDF-15: significantly inhibited these responses in all treated conditions
TIME cells [3]; 100 μM TAT-Gap19, 0 Gy control
  IGFBP-7 control readout: increased
TIME cells [3]; 100 μM TAT-Gap19, 0.1 Gy
  IGFBP-7: acted in a significantly inhibitory way
TIME cells [3]; 100 μM TAT-Gap19, 5 Gy
  IGFBP-7 (radiation-induced increase): not inhibited
